# Counter-ions that a name gives are not always drawn.
# Tested on: behaviors of compound-treated mice
# Test: Neuropharmacological Assay (SmartCube)
# Type: in vivo
# Conditions: for minimal effective dose: Mus musculus, ip, 0.25 h, dose having 50% or more total activity in SmartCube, i.p., read-out: MED (minimal effective dose); for AD: ADHD (probability that activity matches class) / AG: analgesic (probability that activity matches class) / AX: anxiolytic (probability that activity matches class) / CE: cognitive enhancer (probability that activity matches class) / DP: anti-depressant (probability that activity matches class) / MS: mood stabilizer (probability that activity matches class) / PS: anti-psychotic (probability that activity matches class) / SD: sedative hypnotic (probability that activity matches class) / UN: uncharacterized CNS activity (probability that activity matches class): i.p. 15 min before behavioral test, most efficacious dose(s) of 3 doses
# In short: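 Mice dosed i.p. 15 min before testing, with compound in N-methyl-2-pyrrolidone/PEG/propylene glycol, were video-recorded and algorithmically compared with reference-drug behavioral signatures. This gave class-match probabilities (antidepressant, anxiolytic, etc.) at the most efficacious of 3 doses. MED was defined as the dose with ≥50% total activity, usually tested across 0.3–30 mpk.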
compound,measurement,value
"CNCC1OCCc2c(-c3ccnnc3)cccc21 (centres unmarked) [Compound 54, N-Methyl-1-(5-(pyridazin-4-yl)isochroman-1-yl)methanamine hydrochloride salt]",minimal effective dose,3 to 10 mg/kg
same,AD: ADHD (probability that activity matches class),+ (LOQ ≤ + <5%)
same,AG: analgesic (probability that activity matches class),+ (LOQ ≤ + <5%)
same,AX: anxiolytic (probability that activity matches class),+ (LOQ ≤ + <5%)
same,CE: cognitive enhancer (probability that activity matches class),++ (5% ≤ ++ <25%)
same,DP: anti-depressant (probability that activity matches class),++++ (50% ≤ ++++)
same,MS: mood stabilizer (probability that activity matches class),+ (LOQ ≤ + <5%)
same,PS: anti-psychotic (probability that activity matches class),+ (LOQ ≤ + <5%)
same,SD: sedative hypnotic (probability that activity matches class),+ (LOQ ≤ + <5%)
same,UN: uncharacterized CNS activity (probability that activity matches class),+ (LOQ ≤ + <5%)
"CNCC1OCCc2c(-c3cnccn3)cccc21 (centres unmarked) [Compound 56, N-Methyl-1-(5-(pyrazin-2-yl)isochroman-1-yl)methanamine hydrochloride salt]",minimal effective dose,3 to 10 mg/kg
same,AD: ADHD (probability that activity matches class),++ (5% ≤ ++ <25%)
same,AG: analgesic (probability that activity matches class),+ (LOQ ≤ + <5%)
same,AX: anxiolytic (probability that activity matches class),++ (5% ≤ ++ <25%)
same,CE: cognitive enhancer (probability that activity matches class),+ (LOQ ≤ + <5%)
same,DP: anti-depressant (probability that activity matches class),++++ (50% ≤ ++++)
same,MS: mood stabilizer (probability that activity matches class),+ (LOQ ≤ + <5%)
same,PS: anti-psychotic (probability that activity matches class),+ (LOQ ≤ + <5%)
same,SD: sedative hypnotic (probability that activity matches class),+ (LOQ ≤ + <5%)
same,UN: uncharacterized CNS activity (probability that activity matches class),+ (LOQ ≤ + <5%)
"NCC1OCCc2ccc(-c3ccncn3)cc21 (centres unmarked) [Compound 57, 7-(Pyrimidin-4-yl)isochroman-1-yl)methanamine hydrochloride]",minimal effective dose,10 to 30 mg/kg
same,AD: ADHD (probability that activity matches class),+ (LOQ ≤ + <5%)
same,AG: analgesic (probability that activity matches class),+ (LOQ ≤ + <5%)
same,AX: anxiolytic (probability that activity matches class),+ (LOQ ≤ + <5%)
same,CE: cognitive enhancer (probability that activity matches class),++ (5% ≤ ++ <25%)
same,DP: anti-depressant (probability that activity matches class),++ (5% ≤ ++ <25%)
same,MS: mood stabilizer (probability that activity matches class),+ (LOQ ≤ + <5%)
same,PS: anti-psychotic (probability that activity matches class),++ (5% ≤ ++ <25%)
same,SD: sedative hypnotic (probability that activity matches class),++ (5% ≤ ++ <25%)
same,UN: uncharacterized CNS activity (probability that activity matches class),+++ (25% ≤ +++ <50%)
"CNCC1OCCc2ccc(-c3ccncn3)cc21 (centres unmarked) [Compound 58, N-Methyl-1-(7-(pyrimidin-4-yl)isochroman-1-yl)methanamine hydrochloride salt]",minimal effective dose,10 to 30 mg/kg
same,AD: ADHD (probability that activity matches class),+ (LOQ ≤ + <5%)
same,AG: analgesic (probability that activity matches class),+ (LOQ ≤ + <5%)
same,AX: anxiolytic (probability that activity matches class),++ (5% ≤ ++ <25%)
same,CE: cognitive enhancer (probability that activity matches class),+ (LOQ ≤ + <5%)
same,DP: anti-depressant (probability that activity matches class),+ (LOQ ≤ + <5%)
same,MS: mood stabilizer (probability that activity matches class),+ (LOQ ≤ + <5%)
same,PS: anti-psychotic (probability that activity matches class),+ (LOQ ≤ + <5%)
same,SD: sedative hypnotic (probability that activity matches class),+ (LOQ ≤ + <5%)
same,UN: uncharacterized CNS activity (probability that activity matches class),++++ (50% ≤ ++++)
"NCC1OCCc2c(-c3cncs3)cccc21 (centres unmarked) [Compound 59, (5-(Thiazol-5-yl)isochroman-1-yl)methanamine hydrochloride salt]",minimal effective dose,≤ 3 mg/kg
same,AD: ADHD (probability that activity matches class),++ (5% ≤ ++ <25%)
same,AG: analgesic (probability that activity matches class),++ (5% ≤ ++ <25%)
same,AX: anxiolytic (probability that activity matches class),++ (5% ≤ ++ <25%)
same,CE: cognitive enhancer (probability that activity matches class),+ (LOQ ≤ + <5%)
same,DP: anti-depressant (probability that activity matches class),++++ (50% ≤ ++++)
same,MS: mood stabilizer (probability that activity matches class),+ (LOQ ≤ + <5%)
same,PS: anti-psychotic (probability that activity matches class),+ (LOQ ≤ + <5%)
same,SD: sedative hypnotic (probability that activity matches class),+++ (25% ≤ +++ <50%)
same,UN: uncharacterized CNS activity (probability that activity matches class),++ (5% ≤ ++ <25%)
"NCC1OCCc2c(-c3ccncn3)cccc21 (centres unmarked) [Compound 60, (5-(Pyrimidin-4-yl)isochroman-1-yl)methanamine hydrochloride salt]",minimal effective dose,3 to 10 mg/kg
same,AD: ADHD (probability that activity matches class),+ (LOQ ≤ + <5%)
same,AG: analgesic (probability that activity matches class),++ (5% ≤ ++ <25%)
same,AX: anxiolytic (probability that activity matches class),++ (5% ≤ ++ <25%)
same,CE: cognitive enhancer (probability that activity matches class),+ (LOQ ≤ + <5%)
same,DP: anti-depressant (probability that activity matches class),++++ (50% ≤ ++++)
same,MS: mood stabilizer (probability that activity matches class),+ (LOQ ≤ + <5%)
same,PS: anti-psychotic (probability that activity matches class),+ (LOQ ≤ + <5%)
same,SD: sedative hypnotic (probability that activity matches class),+ (LOQ ≤ + <5%)
same,UN: uncharacterized CNS activity (probability that activity matches class),+ (LOQ ≤ + <5%)
"NCC1OCCc2c(-c3ccnnc3)cccc21 (centres unmarked) [Compound 61, (5-(Pyridazin-4-yl)isochroman-1-yl)methanamine hydrochloride salt]",minimal effective dose,10 to 30 mg/kg
same,AD: ADHD (probability that activity matches class),+ (LOQ ≤ + <5%)
same,AG: analgesic (probability that activity matches class),+ (LOQ ≤ + <5%)
same,AX: anxiolytic (probability that activity matches class),++ (5% ≤ ++ <25%)
same,CE: cognitive enhancer (probability that activity matches class),+ (LOQ ≤ + <5%)
same,DP: anti-depressant (probability that activity matches class),++ (5% ≤ ++ <25%)
same,MS: mood stabilizer (probability that activity matches class),+ (LOQ ≤ + <5%)
same,PS: anti-psychotic (probability that activity matches class),+ (LOQ ≤ + <5%)
same,SD: sedative hypnotic (probability that activity matches class),+ (LOQ ≤ + <5%)
same,UN: uncharacterized CNS activity (probability that activity matches class),++++ (50% ≤ ++++)
"NCC1OCCc2c(-c3cccnn3)cccc21 (centres unmarked) [Compound 62, (5-(Pyridazin-3-yl)isochroman-1-yl)methanaminehydrochloride salt]",minimal effective dose,> 30 mg/kg
same,AD: ADHD (probability that activity matches class),+ (LOQ ≤ + <5%)
same,AG: analgesic (probability that activity matches class),+ (LOQ ≤ + <5%)
same,AX: anxiolytic (probability that activity matches class),++ (5% ≤ ++ <25%)
same,CE: cognitive enhancer (probability that activity matches class),+ (LOQ ≤ + <5%)
same,DP: anti-depressant (probability that activity matches class),++ (5% ≤ ++ <25%)
same,MS: mood stabilizer (probability that activity matches class),+ (LOQ ≤ + <5%)
same,PS: anti-psychotic (probability that activity matches class),+ (LOQ ≤ + <5%)
same,SD: sedative hypnotic (probability that activity matches class),+ (LOQ ≤ + <5%)
same,UN: uncharacterized CNS activity (probability that activity matches class),+ (LOQ ≤ + <5%)
"NCC1OCCc2c(-c3cnccn3)cccc21 (centres unmarked) [Compound 63, (5-(Pyrazin-2-yl)isochroman-1-yl)methanamine hydrochloride salt]",minimal effective dose,3 to 10 mg/kg
same,AD: ADHD (probability that activity matches class),++ (5% ≤ ++ <25%)
same,AG: analgesic (probability that activity matches class),+ (LOQ ≤ + <5%)
same,AX: anxiolytic (probability that activity matches class),++ (5% ≤ ++ <25%)
same,CE: cognitive enhancer (probability that activity matches class),+ (LOQ ≤ + <5%)
same,DP: anti-depressant (probability that activity matches class),++++ (50% ≤ ++++)
same,MS: mood stabilizer (probability that activity matches class),+ (LOQ ≤ + <5%)
same,PS: anti-psychotic (probability that activity matches class),+ (LOQ ≤ + <5%)
same,SD: sedative hypnotic (probability that activity matches class),+ (LOQ ≤ + <5%)
same,UN: uncharacterized CNS activity (probability that activity matches class),+ (LOQ ≤ + <5%)
"NCC1OCCc2c(-c3cnoc3)cccc21 (centres unmarked) [Compound 64, (5-(Isoxazol-4-yl)isochroman-1-yl)methanamine hydrochloride salt]",minimal effective dose,3 to 10 mg/kg
same,AD: ADHD (probability that activity matches class),+ (LOQ ≤ + <5%)
same,AG: analgesic (probability that activity matches class),+ (LOQ ≤ + <5%)
same,AX: anxiolytic (probability that activity matches class),+ (LOQ ≤ + <5%)
same,CE: cognitive enhancer (probability that activity matches class),+ (LOQ ≤ + <5%)
same,DP: anti-depressant (probability that activity matches class),++++ (50% ≤ ++++)
same,MS: mood stabilizer (probability that activity matches class),+ (LOQ ≤ + <5%)
same,PS: anti-psychotic (probability that activity matches class),+ (LOQ ≤ + <5%)
same,SD: sedative hypnotic (probability that activity matches class),+ (LOQ ≤ + <5%)
same,UN: uncharacterized CNS activity (probability that activity matches class),++ (5% ≤ ++ <25%)
"CNCC1OCCc2c(-c3cnoc3)cccc21 (centres unmarked) [Compound 65, 1-(5-(Isoxazol-4-yl)isochroman-1-yl)-N-methylmethanamine hydrochloride salt]",minimal effective dose,3 to 10 mg/kg
same,AD: ADHD (probability that activity matches class),++ (5% ≤ ++ <25%)
same,AG: analgesic (probability that activity matches class),+ (LOQ ≤ + <5%)
same,AX: anxiolytic (probability that activity matches class),+ (LOQ ≤ + <5%)
same,CE: cognitive enhancer (probability that activity matches class),++ (5% ≤ ++ <25%)
same,DP: anti-depressant (probability that activity matches class),++++ (50% ≤ ++++)
same,MS: mood stabilizer (probability that activity matches class),+ (LOQ ≤ + <5%)
same,PS: anti-psychotic (probability that activity matches class),++ (5% ≤ ++ <25%)
same,SD: sedative hypnotic (probability that activity matches class),++ (5% ≤ ++ <25%)
same,UN: uncharacterized CNS activity (probability that activity matches class),++ (5% ≤ ++ <25%)

# — patent US10780074B2, “Compounds and uses thereof” (Sunovion Pharmaceuticals Inc., priority 2017, dated 2020)
